In the Kinase Knowledgebase extract (Sharma et al. 2016) one finds IC50 data, which are given here for 45 molecules.

ROCK2 (human), sequence (O75116 whole entry, looked up): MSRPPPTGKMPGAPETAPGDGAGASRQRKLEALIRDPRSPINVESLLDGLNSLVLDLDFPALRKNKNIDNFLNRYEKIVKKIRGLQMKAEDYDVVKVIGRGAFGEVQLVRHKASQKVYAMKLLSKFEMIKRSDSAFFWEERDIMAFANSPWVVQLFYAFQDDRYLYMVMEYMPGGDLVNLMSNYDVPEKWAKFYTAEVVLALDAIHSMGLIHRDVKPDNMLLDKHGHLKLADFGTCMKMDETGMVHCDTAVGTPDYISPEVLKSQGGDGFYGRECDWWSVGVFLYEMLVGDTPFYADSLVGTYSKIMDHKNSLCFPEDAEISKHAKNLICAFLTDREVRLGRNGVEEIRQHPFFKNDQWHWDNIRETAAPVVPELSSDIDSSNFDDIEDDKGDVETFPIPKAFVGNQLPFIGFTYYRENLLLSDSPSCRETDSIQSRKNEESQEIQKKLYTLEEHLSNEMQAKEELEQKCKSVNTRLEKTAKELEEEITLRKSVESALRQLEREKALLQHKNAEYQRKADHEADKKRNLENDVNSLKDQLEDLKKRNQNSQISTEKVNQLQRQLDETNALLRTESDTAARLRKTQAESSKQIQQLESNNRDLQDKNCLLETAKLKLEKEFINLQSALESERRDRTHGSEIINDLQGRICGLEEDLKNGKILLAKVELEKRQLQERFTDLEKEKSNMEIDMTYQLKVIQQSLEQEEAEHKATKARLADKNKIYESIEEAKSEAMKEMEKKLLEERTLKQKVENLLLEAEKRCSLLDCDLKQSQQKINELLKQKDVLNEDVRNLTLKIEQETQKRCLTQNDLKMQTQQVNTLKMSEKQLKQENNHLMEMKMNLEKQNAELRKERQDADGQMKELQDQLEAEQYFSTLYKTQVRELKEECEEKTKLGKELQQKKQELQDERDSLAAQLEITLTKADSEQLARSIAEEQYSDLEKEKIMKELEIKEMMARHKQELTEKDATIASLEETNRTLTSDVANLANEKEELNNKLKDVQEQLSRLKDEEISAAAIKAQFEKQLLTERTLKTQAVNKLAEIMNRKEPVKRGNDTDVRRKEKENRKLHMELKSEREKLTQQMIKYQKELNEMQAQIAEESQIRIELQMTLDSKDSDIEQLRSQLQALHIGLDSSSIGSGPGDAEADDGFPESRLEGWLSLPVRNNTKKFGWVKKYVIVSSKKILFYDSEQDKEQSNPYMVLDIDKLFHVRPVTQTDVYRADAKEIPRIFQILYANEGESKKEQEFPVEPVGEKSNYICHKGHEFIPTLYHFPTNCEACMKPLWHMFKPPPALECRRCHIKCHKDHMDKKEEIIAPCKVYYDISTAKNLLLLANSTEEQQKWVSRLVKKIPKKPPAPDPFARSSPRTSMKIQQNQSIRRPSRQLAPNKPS

The assay addresses ROCK2 (human) (UniProt O75116). The assay is described as follows: Inhibition of ROCK2 Kinase Activity.
For orientation: IC50 means the point on the concentration scale where inhibition reaches its midpoint. Low readings indicate higher potency, high ones lower potency. In the case of `NC(CC(=O)NCc1cc(Cl)cc(Cl)c1)c1ccc(C(=O)Nc2ccncc2)cc1` (stereo not given), the IC50 lay in the range of 50 to 500 nM.
The same measure for `NC(CNC(=O)c1cccc2ccccc12)c1ccc(C(=O)Nc2ccncc2)cc1` (stereo not given): 500 to 5000 nM; for `NC(c1ccc(C(=O)Nc2ccncc2)cc1)C1CCCN1C(=O)C1(c2ccc(F)cc2F)CC1` (stereo not given): 500 to 5000 nM; for `NC(CC(=O)Nc1ccc(CO)cc1)c1ccc(C(=O)Nc2ccncc2)cc1` (stereo not given): 50 to 500 nM.
For `NC(c1ccc(C(=O)Nc2ccncc2)cc1)C1CCCN1C(=O)C1CCSc2ccccc21` (stereo not given) the value was 500 to 5000 nM; for `CC(C)C(C)NC(=O)CC(N)c1ccc(C(=O)Nc2ccncc2)cc1` (stereo not given), 50 to 500 nM; for `COc1cccc(CC(=O)NCC(N)c2ccc(C(=O)Nc3ccncc3)cc2)c1` (stereo not given), 50 to 500 nM.
`CN(CC(N)c1ccc(C(=O)Nc2ccncc2)cc1)C(=O)Cc1ccc(Cl)cc1Cl` (stereo not given) came in with a half-maximal inhibitory concentration (IC50) of 500 to 5000 nM.
The same measure for `CC1CCCC(C(=O)NCC(N)c2ccc(C(=O)Nc3ccncc3)cc2)C1` (stereo not given): 500 to 5000 nM; for `CN(CC(N)c1ccc(C(=O)Nc2ccncc2)cc1)C(=O)Cc1cccc2ccccc12` (stereo not given): 500 to 5000 nM; for `COc1ccccc1CC(=O)NCC(N)c1ccc(C(=O)Nc2ccncc2)cc1` (stereo not given): 500 to 5000 nM.
For `NC(CNC(=O)Cc1ccc2ccccc2c1)c1ccc(C(=O)Nc2ccncc2)cc1` (stereo not given), the 50% inhibitory concentration (IC50) was 500 to 5000 nM.
Regarding `CC[C@H](NC(=O)CC(N)c1ccc(C(=O)Nc2ccncc2)cc1)c1ccc(C)cc1` (stereo not given in full), the IC50 was in the range of 50 to 500 nM.
The same measure for `CN(CCc1ccccc1)C(=O)CC(N)c1ccc(C(=O)Nc2ccncc2)cc1` (stereo not given): 50 to 500 nM; for `NC(CNC(=O)Cc1cccc(Cl)c1)c1ccc(C(=O)Nc2ccncc2)cc1` (stereo not given): 50 to 500 nM.
The same measure for `NC(CNC(=O)C1CCOc2ccccc21)c1ccc(C(=O)Nc2ccncc2)cc1` (stereo not given): 50 to 500 nM; for `NC(CNC(=O)c1nccc2ccccc12)c1ccc(C(=O)Nc2ccncc2)cc1` (stereo not given): 500 to 5000 nM.
For `NC(CNC(=O)CCc1ccccc1)c1ccc(C(=O)Nc2ccncc2)cc1` (stereo not given) the value was 50 to 500 nM; for `CN(CC(N)c1ccc(C(=O)Nc2ccncc2)cc1)C(=O)C1CCCc2ccccc21` (stereo not given), 500 to 5000 nM.
For `CN(CC(N)c1ccc(C(=O)Nc2ccncc2)cc1)C(=O)C1CCc2ccccc21` (stereo not given), the half-maximal inhibitory concentration (IC50) lay in the range of 500 to 5000 nM.
For `NC(c1ccc(C(=O)Nc2ccncc2)cc1)C1CCCN1C(=O)Cc1cccc(Br)c1` (stereo not given) the value was 50 to 500 nM.
For `NC(CNC(=O)c1cccnc1)c1ccc(C(=O)Nc2ccncc2)cc1` (stereo not given), the IC50 is 500 to 5000 nM.
For `NC(CNC(=O)CC1C=CCC1)c1ccc(C(=O)Nc2ccncc2)cc1` (stereo not given) the value was 50 to 500 nM.
The same measure for `NC(CC(=O)NCc1ccc(-c2cccs2)cc1)c1ccc(C(=O)Nc2ccncc2)cc1` (stereo not given): 50 to 500 nM.
Regarding `COc1ccc(CC(=O)N(C)CC(N)c2ccc(C(=O)Nc3ccncc3)cc2)c(OC)c1` (stereo not given), the IC50 was 50 to 500 nM.
For `CN(CC(N)c1ccc(C(=O)Nc2ccncc2)cc1)C(=O)C1CCOc2ccc(Cl)cc21` (stereo not given) the value was 500 to 5000 nM; for `CC(C)(C)ON=Cc1cccc(C(=O)NCC(N)c2ccc(C(=O)Nc3ccncc3)cc2)c1` (stereo not given), 500 to 5000 nM.
The same measure for `NC(c1ccc(C(=O)Nc2ccncc2)cc1)C1CCCN1C(=O)Cc1ccc2ccccc2c1` (stereo not given): 500 to 5000 nM.
`CCOc1ccc(CCNC(=O)CC(N)c2ccc(C(=O)Nc3ccncc3)cc2)cc1` (stereo not given) registered a half-maximal inhibitory concentration (IC50) of 50 to 500 nM.
The same measure for `CC1CC1C(=O)NCC(N)c1ccc(C(=O)Nc2ccncc2)cc1` (stereo not given): 500 to 5000 nM; for `NC(CNC(=O)c1csc(Nc2ccc(F)cc2)n1)c1ccc(C(=O)Nc2ccncc2)cc1` (stereo not given): 500 to 5000 nM; for `NC(CC(=O)Nc1ccc2[nH]ccc2c1)c1ccc(C(=O)Nc2ccncc2)cc1` (stereo not given): 50 to 500 nM.
For the molecule `NC(CNC(=O)C1CCSc2ccccc21)c1ccc(C(=O)Nc2ccncc2)cc1` (stereo not given), the IC50 was in the range of 50 to 500 nM.
The same measure for `CN(CC(N)c1ccc(C(=O)Nc2ccncc2)cc1)C(=O)Cc1ccc(F)cc1F` (stereo not given): 500 to 5000 nM; for `Cc1ccc(C(=O)NCC(N)c2ccc(C(=O)Nc3ccncc3)cc2)s1` (stereo not given): 500 to 5000 nM; for `NC(CNC(=O)NCc1ccccc1)c1ccc(C(=O)Nc2ccncc2)cc1` (stereo not given): 50 to 500 nM.
The same measure for `COc1ccc(CC(=O)N2CCCC2C(N)c2ccc(C(=O)Nc3ccncc3)cc2)c(OC)c1` (stereo not given): 500 to 5000 nM; for `CCNC(=O)CC(N)c1ccc(C(=O)Nc2ccncc2)cc1` (stereo not given): 50 to 500 nM.
For `NC(CNC(=O)c1ccccc1)c1ccc(C(=O)Nc2ccncc2)cc1` (stereo not given) the value was 50 to 500 nM; for `CCOCC(=O)NCC(N)c1ccc(C(=O)Nc2ccncc2)cc1` (stereo not given), 500 to 5000 nM.
In turn, `NC(CNC(=O)c1ccncc1)c1ccc(C(=O)Nc2ccncc2)cc1` (stereo not given) showed an IC50 of 500 to 5000 nM.
The same measure for `CC(C)(NC(=O)CC(N)c1ccc(C(=O)Nc2ccncc2)cc1)c1ccc(Cl)cc1` (stereo not given): 50 to 500 nM; for `NC(c1ccc(C(=O)Nc2ccncc2)cc1)C1CCCN1C(=O)Cc1cncc(Br)c1` (stereo not given): 500 to 5000 nM; for `CN(Cc1ccccc1)C(=O)CC(N)c1ccc(C(=O)Nc2ccncc2)cc1` (stereo not given): 50 to 500 nM.
For the molecule `COc1ccc(CC(=O)N2CCCC2C(N)c2ccc(C(=O)Nc3ccncc3)cc2)cc1` (stereo not given), the IC50 was in the range of 50 to 500 nM.
